How the values were obtained:
[1] = tested on: Cell line; assay: inhibitory concentration against ATP-dependant calcium influx across plasma membrane of human monocytes; assay type: functional, cell-based
[2] = target: T1, P2X purinoceptor 7 (Homo sapiens, UniProt Q99572); assay: Equilibrium constant for P2X purinoceptor 7 expressed in HEK 293 cells at 1 uM; assay type: cell-based, HEK293
T1 sequence (Q99572 whole entry): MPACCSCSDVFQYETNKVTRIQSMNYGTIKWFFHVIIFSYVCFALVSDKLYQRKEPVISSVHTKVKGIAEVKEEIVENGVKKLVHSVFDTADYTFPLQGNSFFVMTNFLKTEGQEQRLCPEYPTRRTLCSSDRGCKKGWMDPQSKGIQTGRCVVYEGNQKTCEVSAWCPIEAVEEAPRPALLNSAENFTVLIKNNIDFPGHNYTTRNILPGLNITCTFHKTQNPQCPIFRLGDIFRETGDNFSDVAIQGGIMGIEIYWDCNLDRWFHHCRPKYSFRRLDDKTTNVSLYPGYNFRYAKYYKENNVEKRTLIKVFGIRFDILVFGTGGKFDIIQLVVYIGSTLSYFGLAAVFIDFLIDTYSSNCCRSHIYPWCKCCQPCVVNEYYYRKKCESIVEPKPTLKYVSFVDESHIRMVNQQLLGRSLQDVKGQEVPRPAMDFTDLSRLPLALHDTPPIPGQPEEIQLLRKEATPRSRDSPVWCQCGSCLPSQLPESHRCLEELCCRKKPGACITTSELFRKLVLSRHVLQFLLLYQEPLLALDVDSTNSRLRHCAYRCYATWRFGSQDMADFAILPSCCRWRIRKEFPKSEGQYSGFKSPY

[3] = target: T1, P2X purinoceptor 7; assay: Maximum binding affinity towards P2X purinoceptor 7 expressed in HEK 293 cells; assay type: cell-based, HEK293
[4] = target: T2, P2X purinoceptor 7 (Homo sapiens) (UniProt Q99572); conditions: HEK293, 1 uM
T2 sequence (whole entry): T1 sequence (Q99572 whole entry)
Description: Dissociation rate constant for P2X purinoceptor 7 expressed in HEK 293 cells at 1 uM

[5] = target: T2, P2X purinoceptor 7 (Homo sapiens); conditions: HEK293
Description: Association rate constant towards P2X purinoceptor 7 expressed in HEK 293 cells

| Compound | IC50 [1] | Kd [2] | Kd [3] | K-1 [4] | k obs [5] |
| --- | --- | --- | --- | --- | --- |
| CN([C@@H](Cc1ccc(OS(=O)(=O)c2cccc3cnccc23)cc1)C(=O)N1CCN(c2ccccc2)CC1)S(=O)(=O)c1cccc2cnccc12 | 51 nM | – | – | – | – |
| Cc1ccccc1N1CCN(C(=O)[C@H](Cc2ccc(OS(=O)(=O)c3cccc4cnccc34)cc2)N(C)S(=O)(=O)c2cccc3cnccc23)CC1 | 15 nM | 3.57 nM | 3.57 nM | 0.025 min⁻¹ | 0.000767 s⁻¹ |

Reference: ChEMBL document CHEMBL1138640, “Synthesis, radiolabeling, and preliminary biological evaluation of [3H]-1-[(S)-N,O-bis-(isoquinolinesulfonyl)-N-methyl-tyrosyl]-4-(o-tolyl)-piperazine, a potent antagonist radioligand for the P2X7 receptor” (Bioorg Med Chem Lett, 2004)
